How the values were obtained:
[1] = test system: Gerbillinae; experiment: Inhibition of GR-73632-induced Gerbil foot tapping after immediate pretreatment iv; type: functional; conditions: read-out: ID50 (the source's name)
[2] = target: Substance-P receptor (Homo sapiens, UniProt P25103); experiment: In vitro inhibition of binding of [125I]-substance P to tachykinin receptor 1
[3] = test system: Gerbillinae; experiment: Inhibition of GR-73632-induced Gerbil foot tapping after 24 hr pretreatment iv; type: functional; conditions: read-out: ID50 (the source's name)

Substance-P receptor, sequence (P25103 whole entry): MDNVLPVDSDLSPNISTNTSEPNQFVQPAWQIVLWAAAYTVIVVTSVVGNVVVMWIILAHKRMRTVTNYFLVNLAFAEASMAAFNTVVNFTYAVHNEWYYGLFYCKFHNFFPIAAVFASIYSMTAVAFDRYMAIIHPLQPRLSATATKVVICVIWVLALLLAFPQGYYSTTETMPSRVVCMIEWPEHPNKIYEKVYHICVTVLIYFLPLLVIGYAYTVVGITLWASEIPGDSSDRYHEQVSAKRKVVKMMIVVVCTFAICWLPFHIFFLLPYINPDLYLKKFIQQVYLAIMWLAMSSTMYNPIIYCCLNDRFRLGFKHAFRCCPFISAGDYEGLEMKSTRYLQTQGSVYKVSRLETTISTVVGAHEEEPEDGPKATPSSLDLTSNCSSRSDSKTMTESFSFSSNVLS

| SMILES | ED50 [1] | IC50 [2] | ED50 [3] |
| --- | --- | --- | --- |
| CNCc1nn[nH]c1CN1CCOC(O[C@H](C)c2cc(C(F)(F)F)cc(C(F)(F)F)c2)[C@@H]1c1ccc(F)cc1 (stereo not given in full) | 3.1 mg/kg | 0.29 nM | – |
| C[C@@H](O[C@H]1OCCN(Cc2nn[nH]c2CN)[C@H]1c1ccc(F)cc1)c1cc(C(F)(F)F)cc(C(F)(F)F)c1 | 5.3 mg/kg | 0.25 nM | – |
| C[C@@H](OC1OCCN(Cc2n[nH]nc2CN(C)C)[C@H]1c1ccc(F)cc1)c1cc(C(F)(F)F)cc(C(F)(F)F)c1.Cl (stereo not given in full) | 0.2 mg/kg | 0.19 nM | 0.3 mg/kg |
| CC(C)N(Cc1[nH]nnc1CN1CCO[C@H](O[C@H](C)c2cc(C(F)(F)F)cc(C(F)(F)F)c2)[C@@H]1c1ccc(F)cc1)C(C)C | 1 mg/kg | 0.35 nM | – |
| C[C@@H](O[C@H]1OCCN(Cc2n[nH]c(=O)[nH]2)[C@H]1c1ccc(F)cc1)c1cc(C(F)(F)F)cc(C(F)(F)F)c1 [APREPITANT] | 0.4 mg/kg | – | 0.3 mg/kg |
| C[C@@H](O[C@H]1OCCN(Cc2nn[nH]c2CN2CCCC2)[C@H]1c1ccc(F)cc1)c1cc(C(F)(F)F)cc(C(F)(F)F)c1 | 0.4 mg/kg | 0.21 nM | – |
| C[C@@H](OC1OCCN(Cc2n[nH]nc2CN2CCC2)[C@H]1c1ccc(F)cc1)c1cc(C(F)(F)F)cc(C(F)(F)F)c1 (stereo not given in full) | 0.4 mg/kg | 0.19 nM | – |

From ChEMBL document CHEMBL1134298, “An orally active, water-soluble neurokinin-1 receptor antagonist suitable for both intravenous and oral clinical administration” (J Med Chem, 2001)
